Laboratory results as given in PMC12396409, “Screening and hit evaluation of a microbial metabolite library against the pathogenic Plasmodium falciparum and Toxoplasma gondii parasites” (International Journal for Parasitology: Drugs and Drug …, 2025).
Like-named read-outs stand apart in the source and are kept apart here.

What was measured:
[1] = test system: P. falciparum 3D7 parasites; test: P. falciparum growth inhibition assay, 1-cycle (72 h treatment), SYBR DNA staining (library screen at 2 μg/mL and dose-response); format: cell-based, Plasmodium falciparum; conditions: 72 h; for activity at 2 µg/mL: Plasmodium falciparum, 3D7, 72 h
[2] = test system: P. falciparum 3D7 parasites; test: P. falciparum growth inhibition assay, 2-cycle (120 h treatment), delayed-death screen and dose-response; format: cell-based, Plasmodium falciparum; conditions: 120 h; for activity at 2 µg/mL: Plasmodium falciparum, 3D7, 120 h
[3] = test system: T. gondii RH strain (RH-Tub-eYFP) tachyzoites; test: microbe, parasite or virus in culture; format: cell-based, Toxoplasma gondii; conditions: 72 h, 72 h; for percent parasite growth at 2 µg/mL: Toxoplasma gondii
[4] = P. falciparum, screen at 2 μg/mL, replicate 1, read-out: Pf_72h_%Growth_Rep1
[5] = P. falciparum, screen at 2 μg/mL, replicate 2, read-out: Pf_72h_%Growth_Rep2
[6] = P. falciparum, screen at 2 μg/mL, replicate 1, read-out: Pf_120h_%Growth_Rep1
[7] = P. falciparum, screen at 2 μg/mL, replicate 2, read-out: Pf_120h_%Growth_Rep2
[8] = T. gondii, screen at 2 μg/mL, replicate 1, read-out: Tg_72h_%Growth_Rep1
[9] = T. gondii, screen at 2 μg/mL, replicate 2, read-out: Tg_72h_%Growth_Rep2
[10] = library screen at 2 μg/mL, % growth, replicate 1
[11] = library screen at 2 μg/mL, % growth, replicate 2
[12] = P. falciparum, parasite screen 2 μg/mL, % growth, replicate 1
[13] = P. falciparum, parasite screen 2 μg/mL, % growth, replicate 2
[14] = P. falciparum, screen at 2 μg/mL, replicate 1
[15] = P. falciparum, screen at 2 μg/mL, replicate 2
[16] = T. gondii, screen at 2 μg/mL, replicate 1
[17] = T. gondii, screen at 2 μg/mL, replicate 2

O=C(N[C@H](CO)[C@H](O)c1ccc([N+](=O)[O-])cc1)C(Cl)Cl [Chloramphenicol]
activity at 2 µg/mL [1, 4]: 85.8% | activity at 2 µg/mL [1, 5]: 84.9% | activity at 2 µg/mL [2, 6]: 117% | activity at 2 µg/mL [2, 7]: 64.9% | percent parasite growth at 2 µg/mL [3, 8]: 86.7% | percent parasite growth at 2 µg/mL [3, 9]: 85.3%

CN(C)[C@@H]1C(O)=C(C(N)=O)C(=O)[C@@]2(O)C(O)=C3C(=O)c4c(O)ccc(Cl)c4[C@@](C)(O)[C@H]3C[C@@H]12 [Chlortetracycline]
activity at 2 µg/mL [1, 4]: 97.7% | activity at 2 µg/mL [1, 5]: 90.6% | activity at 2 µg/mL [2, 6]: 149% | activity at 2 µg/mL [2, 7]: 97.7% | percent parasite growth at 2 µg/mL [3, 8]: 102% | percent parasite growth at 2 µg/mL [3, 9]: 83.5%

CO[C@H]1C[C@H](O[C@@H]2/C(C)=C/C[C@@H]3C[C@@H](C[C@]4(C=C[C@H](C)[C@@H](C5CCCCC5)O4)O3)OC(=O)[C@@H]3C=C(C)[C@@H](O)[C@H]4OC/C(=C\C=C\[C@@H]2C)[C@]43O)O[C@@H](C)[C@@H]1O [Doramectin monosaccharide]
Pf_72h_%Growth_Rep1 [1, 10]: 77.72% | Pf_72h_%Growth_Rep2 [1, 11]: 82.97% | Pf_120h_%Growth_Rep1 [2, 10]: 94.58% | Pf_120h_%Growth_Rep2 [2, 11]: 82.00% | Tg_72h_%Growth_Rep1 [3, 10]: 100.60% | Tg_72h_%Growth_Rep2 [3, 11]: 107.16%

COc1cc2c(c3oc4cccc(O)c4c(=O)c13)[C@@H]1C=CO[C@@H]1O2 [Sterigmatocystin]
Pf_72h_%Growth_Rep1 [1, 12]: 4.81% | Pf_72h_%Growth_Rep2 [1, 13]: 2.16% | Pf_120h_%Growth_Rep1 [2, 12]: 5.33% | Pf_120h_%Growth_Rep2 [2, 13]: 4.61% | Tg_72h_%Growth_Rep1 ([3]; T. gondii, parasite screen 2 μg/mL, % growth, replicate 1): 117.93% | Tg_72h_%Growth_Rep2 ([3]; T. gondii, parasite screen 2 μg/mL, % growth, replicate 2): 89.47%

CC[C@H]1C[C@]23OC(=O)/C(=C(\O)[C@@]4(CC)[C@@H]5CC[C@H](C)[C@H](O[C@H]6C[C@H](O)[C@H](NC(=O)c7[nH]c(Cl)cc7Cl)[C@@H](C)O6)[C@H]5C=C[C@H]4C/C=C/C/C(C)=C/[C@@]2(C)C=C1C(=O)O)C3=O [Decatromicin B]
Pf_72h_%Growth_Rep1 [1, 14]: 89.49% | Pf_72h_%Growth_Rep2 [1, 15]: 90.33% | Pf_120h_%Growth_Rep1 [2, 14]: 74.87% | Pf_120h_%Growth_Rep2 [2, 15]: 101.36% | Tg_72h_%Growth_Rep1 [3, 16]: 105.42% | Tg_72h_%Growth_Rep2 [3, 17]: 104.91%

CC1(O)Cc2oc3cc(O)c(O)c(C(=O)O)c3c(=O)c2CO1 (stereo not shown) [Fulvic acid]
Pf_72h_%Growth_Rep1 [1, 10]: 84.86% | Pf_72h_%Growth_Rep2 [1, 11]: 84.76% | Pf_120h_%Growth_Rep1 [2, 10]: 105.15% | Pf_120h_%Growth_Rep2 [2, 11]: 98.61% | Tg_72h_%Growth_Rep1 [3, 10]: 149.83% | Tg_72h_%Growth_Rep2 [3, 11]: 113.67%

CCCCC[C@@H](O)[C@H]1C(=O)O[C@H](C)[C@@H](O)/C=C/C=C/C=C/C=C/C=C(\C)[C@@H](O)C[C@H](O)C[C@H](O)C[C@H](O)C[C@H](O)C[C@H](O)C[C@@H]1O [Filipin III]
activity at 2 µg/mL ([1]; library screen at 2 μg/mL, % growth, replicate 1, read-out: Pf_72h_%Growth_Rep1): 83.6% | activity at 2 µg/mL ([1]; library screen at 2 μg/mL, % growth, replicate 2, read-out: Pf_72h_%Growth_Rep2): 89.2% | activity at 2 µg/mL ([2]; library screen at 2 μg/mL, % growth, replicate 1, read-out: Pf_120h_%Growth_Rep1): 97.4% | activity at 2 µg/mL ([2]; library screen at 2 μg/mL, % growth, replicate 2, read-out: Pf_120h_%Growth_Rep2): 99.7% | percent parasite growth at 2 µg/mL ([3]; library screen at 2 μg/mL, % growth, replicate 1, read-out: Tg_72h_%Growth_Rep1): 120% | percent parasite growth at 2 µg/mL ([3]; library screen at 2 μg/mL, % growth, replicate 2, read-out: Tg_72h_%Growth_Rep2): 104%

COc1c(C)c(OC(=O)c2c(C)c(C)c(OC(=O)c3c(C)cc(O)c(C)c3O)c(C)c2OC)c(C)c(C)c1C(=O)O [Thielavin B]
activity in the screen against P. falciparum ([1]; 2 μg/mL, active = ≥80 % growth inhibition): active | Pf_72h_%Growth_Rep1 [1, 14]: 13.97% | Pf_72h_%Growth_Rep2 [1, 15]: 7.85% | Pf_120h_%Growth_Rep1 [2, 14]: 38.21% | Pf_120h_%Growth_Rep2 [2, 15]: 6.65% | Tg_72h_%Growth_Rep1 [3, 16]: 86.62% | Tg_72h_%Growth_Rep2 [3, 17]: 101.22%

CCCCCCC(C)C/C(C)=C\C(/C=C(C)/C=C/C(O)C(C)(C)c1cc(O)c([C@@H]2O[C@H](CO)C[C@H](O)[C@H]2O)c(=O)o1)CO (stereo partly shown) [Fusapyrone]
Pf_72h_%Growth_Rep1 [1, 10]: 90.44% | Pf_72h_%Growth_Rep2 [1, 11]: 35.77% | Pf_120h_%Growth_Rep1 [2, 10]: 92.76% | Pf_120h_%Growth_Rep2 [2, 11]: 105.39% | Tg_72h_%Growth_Rep1 [3, 10]: 113.82% | Tg_72h_%Growth_Rep2 [3, 11]: 93.81%
